“Also recorded” adds a separate entry of the source. Marks after values point to notes of the source that are not given here.
Columns and labels:
[1] = Example 1: UUO mice, mean body weight change following surgery; assay type: in vivo; conditions: Example 1, mostly post-surgical day 14, male C57BL/6 mice, PO QD days 1-14, doses of Table 1
Procedure: Male 9-12 week old C57BL/6 mice of 23-25 grams body weight were used. All mice were acclimated for a minimum of 5 days prior to the start of the study and housed individually in microisolators throughout the study in a 12:12 light-dark cycle on a standard maintenance mouse chow diet (Harlan Teklad 2018) with food and water given ad libitum. Prior to surgery, all mice were weighed for baseline body weight.
The UUO surgical intervention was performed according to previously described methods known in the art (Le Meur Y et al., Macrophage accumulation at a site of renal inflammation is dependent on the M-CSF/c-fms pathway, J Leukocyte Biol., 72:530-537; 2002).
All mice were first anesthetized by intraperitoneal injection with a rodent cocktail (ketamine 10 mg/mL and Xyaline 1 mg/mL) in normal saline (10 μL/g body weight). Pedal reflex and movement of the vibrissae were used to determine the state of unconsciousness. A state of unconsciousness was confirmed after a period of about 5 minutes in all animals. All mice were then shaved on the left side of the abdomen. The shaved area was first swabbed with iodine and then swabbed with alcohol. A vertical incision was made through the skin with a #22 scalpel and the skin was then retracted. A further incision of about 2.5 cm was then made through the peritoneum avoiding any major blood vessels. The peritoneum was then retracted and the left kidney was exposed.
The left kidney was then brought to the surface by hooking the ureter directly beneath the kidney with sterile forceps and gently manipulating the kidney upward. The ureter was ligated at two points directly below the kidney with 5-0 surgical silk with excess suture cut away and discarded post-ligation. The kidney was then gently placed back to its correct anatomical position and the abdomen was lavaged with 1 mL sterile saline to replenish fluid loss. The peritoneum and then skin were sutured with 5-0 Mersilene, and the incision site was gently wiped with iodine. All mice were then placed individually in clean cages that were set on top of a thermal blanket until recovery at about 30-60 minutes later. In some examples, sham surgery was performed as a control by following all steps of the UUO surgical intervention procedure except ligation.
Following surgery, the mice were divided into 14 individual study groups of 8 mice each and, following post-surgical recovery, administered a once-daily oral treatment for 14 days. The mice in 12 of the 14 study groups (hereafter known as “treatment groups”) had all received the UUO surgical ligation and were treated individually with a distinct pharmacologic compound as set out in Table 1. The mice in 2 of the 14 study groups were treated individually with a pharmaceutically acceptable vehicle with no active ingredient. The pharmaceutically acceptable vehicle in all groups was 0.5% carboxymethyl cellulose (CMC). All mice were sacrificed with CO2 on post-surgical day 15.
The dose selected for the animal studies was determined by taking the maximum known human daily dose, dividing by the average weight of an adult (˜60-70 kg) to get a human mg/kg dose. […]
Body weight: The body weights were measured on days 1, 2, 5, 8, 10 and 14 using a laboratory balance.
Body weights were measured on post-surgical days 1, 2, 5, 8, 10 and 14 as previously described. The mean body weight change of each study group was calculated using the body weight average of all mice in each study group.

[2] = system: C57BL/6 mice with UUO surgical ligation; test: Example 1: UUO mice, renal function evaluation (plasma BUN, creatinine); assay type: in vivo
Method in brief: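 Male C57BL/6 mice (9-12 weeks, 23-25 g) had the left ureter ligated at two points (sham controls unligated), then received once-daily oral compound or 0.5% CMC vehicle for 14 days; doses scaled from maximum human daily dose ×12. Sacrifice on day 15; plasma urea nitrogen and creatinine measured, BUN averaged per group (n = 8).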

[3] = Example 2: UUO mice, mean body weight change following surgery; assay type: in vivo, C57BL/6 mice; conditions: for Mean Body Weight Change Following Surgery, Day 1 / Mean Body Weight Change Following Surgery, Day 4 / Mean Body Weight Change Following Surgery, Day 7 / Mean Body Weight Change Following Surgery, Day 10 / Mean Body Weight Change Following Surgery, Day 14: UUO, female C57BL/6 mice, PO QD days 1-14; for Body weight course after surgery, in words: Example 2
Procedure: (§1) In this example, healthy young female C57BL/6 mice were used for the study. At the commencement of the study, mice were between 9-12 weeks of age, weighing 23-25 g. All the mice were obtained from Charles River Laboratories.
(§2) The mice were maintained in a controlled environment with a temp 70-72° F., humidity 30-70%, with a photo cycle of 12 hours of light and 12 hours of dark. They were provided with Harlan Teklad 2018 standard maintenance mouse chow diet and drinking water ad libitium.
(§3) After five days of acclimatization, the mice were grouped according to their body weight. There were ten groups of ten mice each. Nine groups of ten mice each underwent UUO as described above and the other group of ten mice underwent a sham procedure to serve as a no-surgery control.
(§4) Following surgery, the mice were divided into 10 individual study groups of 10 mice each and, following post-surgical recovery, administered a once-daily oral treatment for 14 days. The mice in 8 of the 10 study groups had all received the UUO surgical ligation and were treated individually with a distinct pharmacologic compound as set out in Table 6. The mice in 2 of the 10 study groups were treated individually with a pharmaceutically acceptable vehicle with no active ingredient. The pharmaceutically acceptable vehicle in all groups was 0.5% carboxymethyl cellulose (CMC). All mice were sacrificed with CO2 on post-surgical day 15.
(§5) The dose selected for the animal studies was determined by taking the maximum known human daily dose, dividing by the average weight of an adult (˜60-70 kg) to get a human mg/kg dose. That number was multiplied by 12 to convert to a mouse dose based on conventional dosing tables. See Nair and Jacob, J Basic Clin Pharm March 2016-May 2016, 7(2):27-31.
Body weight: The body weights were measured on days 1, 4, 7, 10 and 14 using a laboratory balance.
Body weights were measured on post-surgical days 1, 4, 7, 10 and 14 as previously described. The mean body weight change of each study group was calculated using the body weight average of all mice in each study group.

[4] = system: C57BL/6 mice with UUO surgical ligation; test: Example 2: UUO mice, kidney weight evaluation; assay type: in vivo; conditions: group mean, UUO, female C57BL/6 mice, PO QD days 1-14; for Drained Left Kidney: ligated kidney drained; for Excised Left Kidney: ligated kidney; for Right Kidney (g): unligated kidney
Procedure: as §1, §2, §3, §4, §5
Kidney weight: The UUO was then examined in situ to ensure that the surgical ligation ties remained patent. Both the ligated (UUO) and non-ligated kidneys were removed for analysis. Weights of both kidneys were measured using a laboratory balance.
The data are presented as the mean obtained from Microsoft Excel or GraphPad Prism version 5.00 for Windows (GraphPad Software, San Diego California USA). Data were analyzed using two-way ANOVA using Bonferroni and Tamhane post-tests. Differences between groups were considered significant at p<0.05.
Kidney Weight Evaluation: Kidney weight, which indicates functional and pathological changes in the kidney, was evaluated by measuring the weight of both the ligated (UUO) and non-ligated kidneys as previously described. The ligated and non-ligated kidney weights of each study group consisted of the respective kidney weight averages of all mice in each study group.

[5] = mg/kg: Telmisartan 3, Bemithyl 200, Repirinast 30, Telmisartan+Bemithyl 3+200, Telmisartan+Repirinast 3+30, Cenicriviroc 40, Bromantane 40

SMILES: Cc1ccc2c([nH]c(=O)c3c(=O)cc(C(=O)OCCC(C)C)oc32)c1C [Repirinast, 3-methylbutyl 7,8-dimethyl-4,5-dioxo-5,6-dihydro-4H-pyrano[3,2-c]quinoline-2-carboxylate]
- Mean body weight change, comparison with control groups, in words [1]: greater decrease in body weight
- BUN in comparison to control groups, in words ([2]; Example 1, UUO, male C57BL/6 mice, PO QD days 1-14, doses of Table 1): less renal dysfunction and disease progression than the positive control treatment; also recorded: decreased in comparison to the sham surgery control group
- Reduction in BUN compared to vehicle, in words, post-test not stated ([2]; Example 1 text and conclusions, Bemithyl 200, Repirinast 30, Bromantane 20, Telmisartan 5 mg/kg PO QD): significant reductions in BUN compared to vehicle
- Reduction in levels of BUN compared to vehicle, significance in words ([2]; p<0.05, Tamhane post-test, Example 1, Repirinast 30, Bemithyl 200, Bromantane 20 mg/kg PO QD): significant reductions in the levels of BUN
- Mean Body Weight Change Following Surgery, Day 1 ([3]; Repirinast 90 mg/kg): 0 g
- Mean Body Weight Change Following Surgery, Day 1 [3, 5]: 0 g
- Mean Body Weight Change Following Surgery, Day 4 ([3]; Repirinast 90 mg/kg): 0.31 g
- Mean Body Weight Change Following Surgery, Day 4 [3, 5]: 0.34 g
- Mean Body Weight Change Following Surgery, Day 7 ([3]; Repirinast 90 mg/kg): 0.60 g
- Mean Body Weight Change Following Surgery, Day 7 [3, 5]: 0.35 g
- Mean Body Weight Change Following Surgery, Day 10 ([3]; Repirinast 90 mg/kg): 0.86 g
- Mean Body Weight Change Following Surgery, Day 10 [3, 5]: 0.83 g
- Mean Body Weight Change Following Surgery, Day 14 ([3]; Repirinast 90 mg/kg): 1.08 g
- Mean Body Weight Change Following Surgery, Day 14 [3, 5]: 0.86 g
- Body weight course after surgery, in words ([3]; Repirinast 90 mg/kg PO QD): no initial decrease in body weight; also recorded: appeared to reverse the negative effects of UUO on body weight gain
- Body weight course after surgery, in words ([3]; mg/kg PO QD: Repirinast 30, Bemithyl 200, Bromantane 40, Telmisartan+Bemithyl 3+200): no initial decrease in body weight
- Drained Left Kidney ([4]; Repirinast 90 mg/kg): 0.1648 g
- Drained Left Kidney [4, 5]: 0.1808 g
- Excised Left Kidney ([4]; Repirinast 90 mg/kg): 0.3681 g
- Excised Left Kidney [4, 5]: 0.412 g
- Right Kidney (g) ([4]; Repirinast 90 mg/kg): 0.1378* g
- Right Kidney (g) [4, 5]: 0.1468* g

Reference: patent US12280026B2, “Use of repirinast in the prophylaxis or treatment of renal fibrosis or kidney disease” (ALGERNON PHARMACEUTICALS INC., priority 2018, dated 2025)
